Laboratory results taken from patent publication US8334409B2, “Process for purifying rasagiline base” (Teva Pharmaceutical Industries, Ltd., priority 2008, dated 2012).

Key:
[1] = low levels of volatiles (water and residual solvents) by KF and TGA
[2] = alcohols, acetone, ethyl acetate, toluene, diethyl ether, dioxane, hexane and n-heptane

hygroscopicity [1]: not hygroscopic
solubility in polar and non-polar organic solvents [2]: freely soluble
SMILES: C#CCN[C@@H]1CCc2ccccc21 [rasagiline base, R(+)-N-propargyl-1-aminoindan]
